From ChEMBL document CHEMBL4732071, “Discovery of selective HDAC/BRD4 dual inhibitors as epigenetic probes” (Eur J Med Chem, 2021)
The source made the active and inactive calls. The rule behind the calls is not given here.

Assays:
[1] = target: T1, Protein deacetylase HDAC6 (Homo sapiens) (UniProt Q9UBN7); assay: Inhibition of HDAC6 in human MV4-11 cells assessed as increase in acetylated alpha-tubulin at 10 to 1000 nM incubated for 24 hrs by Western blot analysis; format: cell-based; conditions: dose 10-1000 nM
T1 sequence (whole entry): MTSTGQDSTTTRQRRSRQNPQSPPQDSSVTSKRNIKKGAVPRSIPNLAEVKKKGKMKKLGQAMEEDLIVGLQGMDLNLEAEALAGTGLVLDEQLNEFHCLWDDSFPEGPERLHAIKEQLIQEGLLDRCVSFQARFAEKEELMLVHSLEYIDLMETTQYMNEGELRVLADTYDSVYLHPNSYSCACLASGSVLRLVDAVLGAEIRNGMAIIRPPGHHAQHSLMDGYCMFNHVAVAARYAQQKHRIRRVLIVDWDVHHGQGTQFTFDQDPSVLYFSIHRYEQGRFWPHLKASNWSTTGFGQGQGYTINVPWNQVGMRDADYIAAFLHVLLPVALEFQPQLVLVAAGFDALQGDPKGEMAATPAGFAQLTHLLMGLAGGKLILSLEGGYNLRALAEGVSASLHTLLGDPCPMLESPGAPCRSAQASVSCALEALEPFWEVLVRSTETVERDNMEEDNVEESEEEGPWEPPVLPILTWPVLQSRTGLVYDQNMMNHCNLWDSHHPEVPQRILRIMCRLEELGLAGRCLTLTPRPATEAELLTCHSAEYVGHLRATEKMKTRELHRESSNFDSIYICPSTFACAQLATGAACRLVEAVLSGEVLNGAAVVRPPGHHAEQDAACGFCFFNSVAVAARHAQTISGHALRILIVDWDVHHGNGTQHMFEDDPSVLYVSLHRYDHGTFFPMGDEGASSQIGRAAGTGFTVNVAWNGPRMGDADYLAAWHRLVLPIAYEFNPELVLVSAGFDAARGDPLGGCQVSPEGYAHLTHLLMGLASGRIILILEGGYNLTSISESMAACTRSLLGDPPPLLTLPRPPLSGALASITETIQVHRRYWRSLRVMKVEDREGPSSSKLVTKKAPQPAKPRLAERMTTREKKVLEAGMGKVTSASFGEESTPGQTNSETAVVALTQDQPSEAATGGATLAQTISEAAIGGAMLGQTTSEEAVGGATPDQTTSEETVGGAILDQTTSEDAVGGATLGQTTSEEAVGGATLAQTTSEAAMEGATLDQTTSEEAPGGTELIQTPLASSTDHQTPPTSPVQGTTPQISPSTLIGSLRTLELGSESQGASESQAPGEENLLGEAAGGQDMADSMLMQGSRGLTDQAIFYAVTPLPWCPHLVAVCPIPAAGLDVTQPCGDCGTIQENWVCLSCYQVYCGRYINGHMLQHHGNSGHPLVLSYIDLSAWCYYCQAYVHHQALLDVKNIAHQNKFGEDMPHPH

[2] = target: T2, Protein deacetylase HDAC6 (Homo sapiens, UniProt Q9UBN7); assay: Inhibition of HDAC6 (unknown origin) by fluorescence based assay
T2 sequence (Q9UBN7 whole entry): T1 sequence (whole entry)

MV4-11 [3] = assay: Antiproliferative activity against human MV4-11 cells assessed as cell viability after 72 hrs by CCK8 assay; format: functional, cell-based; conditions: MV4-11, 72 h
MV4-11 [4] = assay: Induction of cell cycle arrest in human MV4-11 cells assessed as accumulation at G0/G1 phase at 1000 nM after 24 hrs by flow cytometry; format: functional, cell-based
Histone deacetylase 11 = target: T3, Histone deacetylase 11 (Homo sapiens, UniProt Q96DB2); assay: Inhibition of HDAC11 (unknown origin) by fluorescence based assay
T3 sequence (Q96DB2 whole entry): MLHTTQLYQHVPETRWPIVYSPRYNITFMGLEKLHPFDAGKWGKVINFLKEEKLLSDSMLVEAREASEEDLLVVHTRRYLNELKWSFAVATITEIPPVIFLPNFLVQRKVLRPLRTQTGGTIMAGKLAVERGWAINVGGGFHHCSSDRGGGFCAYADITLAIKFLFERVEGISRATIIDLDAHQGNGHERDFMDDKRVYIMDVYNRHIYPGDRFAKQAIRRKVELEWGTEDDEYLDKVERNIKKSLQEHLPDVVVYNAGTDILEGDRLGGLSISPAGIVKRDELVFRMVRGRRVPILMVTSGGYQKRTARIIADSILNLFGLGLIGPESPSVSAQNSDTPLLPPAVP

Histone deacetylase 3 = Histone deacetylase 3 (Homo sapiens, UniProt O15379); assay: Inhibition of HDAC3 (unknown origin) by fluorescence based assay
[5] = target: T4, Bromodomain-containing protein 4 (Homo sapiens, UniProt O60885); assay: Inhibition of His-tagged BRD4 bromodomain 1 (unknown origin) using [Lys (5,8,12,16) Ac] H4(1-21) as substrate by fluorescence based assay
[6] = target: T4, Bromodomain-containing protein 4; assay: Inhibition of BRD4 in human MV4-11 cells assessed as reduction in c-Myc expression measured after 24 hrs by Western blot analysis; format: cell-based; conditions: dose 10-1000 nM
Histone deacetylase 8 = target: T5, Histone deacetylase 8 (Homo sapiens, UniProt Q9BY41); assay: Inhibition of HDAC8 (unknown origin) by fluorescence based assay
T5 sequence (Q9BY41 whole entry): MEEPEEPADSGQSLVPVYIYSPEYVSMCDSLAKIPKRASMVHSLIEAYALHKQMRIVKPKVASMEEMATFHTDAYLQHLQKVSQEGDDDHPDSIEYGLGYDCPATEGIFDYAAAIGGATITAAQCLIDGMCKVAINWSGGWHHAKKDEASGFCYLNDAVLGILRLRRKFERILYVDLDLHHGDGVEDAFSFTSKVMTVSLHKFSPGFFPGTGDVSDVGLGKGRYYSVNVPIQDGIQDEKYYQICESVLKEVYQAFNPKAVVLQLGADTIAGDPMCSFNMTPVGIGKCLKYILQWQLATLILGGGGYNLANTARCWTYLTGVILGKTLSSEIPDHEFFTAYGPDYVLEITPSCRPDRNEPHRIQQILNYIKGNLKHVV

Histone deacetylase 1 [7] = target: T6, Histone deacetylase 1 (Homo sapiens, UniProt Q13547); assay: Inhibition of HDAC1 (unknown origin) by fluorescence based assay
MV4-11 [8] = assay: Induction of apoptosis in human MV4-11 cells at 1000 nM after 24 hrs by flow cytometry relative to control; format: functional
Histone deacetylase 4 = Histone deacetylase 4 (Homo sapiens, UniProt P56524); assay: Inhibition of HDAC4 (unknown origin) by fluorescence based assay
[9] = target: T4, Bromodomain-containing protein 4; assay: Inhibition of His-tagged BRD4 bromodomain 2 (unknown origin) using [Lys (5,8,12,16) Ac] H4(1-21) as substrate by fluorescence based assay
Histone deacetylase 1 [10] = target: T6, Histone deacetylase 1; assay: Inhibition of HDAC1 in human MV4-11 cells assessed as increase in acetylated H3 at 10 to 1000 nM incubated for 24 hrs by Western blot analysis; format: cell-based; conditions: dose 10-1000 nM
[11] = target: T4, Bromodomain-containing protein 4; assay: Inhibition of BRD4 in human MV4-11 cells assessed as reduction in c-Myc expression at 10 to 1000 nM measured after 24 hrs by Western blot analysis; format: cell-based; conditions: dose 10-1000 nM
[12] = target: T4, Bromodomain-containing protein 4; assay: Inhibition of BRD4 in human MV4-11 cells assessed as upregulation of p21 expression at 10 to 1000 nM measured after 24 hrs by Western blot analysis; format: cell-based; conditions: dose 10-1000 nM
Histone deacetylase 1 [13] = target: T6, Histone deacetylase 1; assay: Inhibition of HDAC1 in human MV4-11 cells assessed as increase in acetylated H3 at 1 uM incubated for 24 hrs by Western blot analysis; format: cell-based
[14] = target: T1, Protein deacetylase HDAC6 (Homo sapiens); assay: Inhibition of HDAC6 in human MV4-11 cells assessed as increase in acetylated alpha-tubulin at 1 uM incubated for 24 hrs by Western blot analysis; format: cell-based

Chain of Histone deacetylase 4 (P56524 whole entry): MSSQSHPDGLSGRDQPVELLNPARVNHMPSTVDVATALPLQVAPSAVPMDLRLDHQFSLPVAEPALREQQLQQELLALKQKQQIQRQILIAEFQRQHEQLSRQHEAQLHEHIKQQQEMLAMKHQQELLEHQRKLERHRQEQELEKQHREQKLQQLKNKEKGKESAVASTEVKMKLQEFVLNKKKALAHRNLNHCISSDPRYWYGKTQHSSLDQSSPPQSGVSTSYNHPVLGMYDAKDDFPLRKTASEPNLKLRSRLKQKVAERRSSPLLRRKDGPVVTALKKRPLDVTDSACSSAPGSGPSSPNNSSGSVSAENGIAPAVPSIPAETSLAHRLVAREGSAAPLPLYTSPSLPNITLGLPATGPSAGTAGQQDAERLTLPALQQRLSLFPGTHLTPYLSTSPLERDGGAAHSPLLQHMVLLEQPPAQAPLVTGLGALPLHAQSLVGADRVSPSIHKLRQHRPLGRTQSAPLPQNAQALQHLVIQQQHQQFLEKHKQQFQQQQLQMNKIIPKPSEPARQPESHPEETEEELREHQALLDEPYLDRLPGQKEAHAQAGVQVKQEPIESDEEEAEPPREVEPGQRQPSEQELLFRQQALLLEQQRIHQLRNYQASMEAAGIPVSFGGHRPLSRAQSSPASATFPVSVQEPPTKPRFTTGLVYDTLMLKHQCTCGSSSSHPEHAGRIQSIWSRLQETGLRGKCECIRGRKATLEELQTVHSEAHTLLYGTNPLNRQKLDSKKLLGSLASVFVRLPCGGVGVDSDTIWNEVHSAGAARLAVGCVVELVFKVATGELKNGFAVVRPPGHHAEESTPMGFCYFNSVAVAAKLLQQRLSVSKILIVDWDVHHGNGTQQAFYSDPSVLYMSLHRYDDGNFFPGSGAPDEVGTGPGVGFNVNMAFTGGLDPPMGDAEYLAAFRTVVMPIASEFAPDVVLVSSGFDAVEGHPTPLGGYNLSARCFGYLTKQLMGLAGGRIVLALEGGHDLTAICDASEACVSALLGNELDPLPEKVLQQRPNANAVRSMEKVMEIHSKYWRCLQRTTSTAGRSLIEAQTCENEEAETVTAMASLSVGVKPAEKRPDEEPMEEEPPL
T6 sequence (Q13547 whole entry): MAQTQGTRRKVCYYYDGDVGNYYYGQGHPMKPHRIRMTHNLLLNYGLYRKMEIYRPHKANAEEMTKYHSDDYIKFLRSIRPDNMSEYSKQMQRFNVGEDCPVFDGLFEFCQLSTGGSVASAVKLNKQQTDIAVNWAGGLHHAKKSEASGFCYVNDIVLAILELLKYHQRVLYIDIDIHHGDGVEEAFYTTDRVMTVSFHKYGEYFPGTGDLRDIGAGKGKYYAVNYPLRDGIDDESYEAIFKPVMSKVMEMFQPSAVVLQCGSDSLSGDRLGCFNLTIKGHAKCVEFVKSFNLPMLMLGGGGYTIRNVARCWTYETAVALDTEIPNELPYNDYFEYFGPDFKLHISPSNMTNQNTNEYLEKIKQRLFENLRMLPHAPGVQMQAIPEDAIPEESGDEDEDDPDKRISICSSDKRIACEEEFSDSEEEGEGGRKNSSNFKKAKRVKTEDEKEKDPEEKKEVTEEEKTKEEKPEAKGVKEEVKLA
Chain of Histone deacetylase 3 (O15379 whole entry): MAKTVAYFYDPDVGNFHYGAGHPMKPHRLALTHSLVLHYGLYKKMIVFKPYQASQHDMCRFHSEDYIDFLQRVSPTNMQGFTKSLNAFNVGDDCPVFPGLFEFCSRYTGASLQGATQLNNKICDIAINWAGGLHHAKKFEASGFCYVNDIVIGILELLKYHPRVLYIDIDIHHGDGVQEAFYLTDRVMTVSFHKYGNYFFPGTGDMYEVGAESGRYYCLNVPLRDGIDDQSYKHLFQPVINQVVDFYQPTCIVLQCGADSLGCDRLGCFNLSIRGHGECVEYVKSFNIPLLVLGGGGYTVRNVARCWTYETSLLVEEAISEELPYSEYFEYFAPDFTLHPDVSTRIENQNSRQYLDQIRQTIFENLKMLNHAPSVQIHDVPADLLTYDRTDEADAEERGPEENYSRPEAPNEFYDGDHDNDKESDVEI

Row | SMILES | Acetylated alpha-tubulin increase (active/not active) [1] | IC50 [2] | IC50 (MV4-11 [3]) | Activity (MV4-11 [4]) | IC50 (Histone deacetylase 11) | IC50 (Histone deacetylase 3) | IC50 [5] | inhibition [6] | IC50 (Histone deacetylase 8) | IC50 (Histone deacetylase 1 [7]) | Activity (MV4-11 [8]) | IC50 (Histone deacetylase 4) | IC50 [9] | inhibition (Histone deacetylase 1 [10]) | inhibition [11] | inhibition [12] | inhibition (Histone deacetylase 1 [13]) | inhibition [14]
1 | Cc1cc(F)cc(C)c1Oc1ccc(C(C)(C)O)cc1-c1cn(C)c(=O)c2[nH]c(C(=O)NCCCCCCC(=O)NO)cc12 | Active | 17.2 nM | 300 nM | Active | 2750 nM | 161 nM | 369 nM | Active | 583 nM | 228 nM | 19.29% | > 10000 nM | 1.2 nM |  |  |  |  | 
2 | Cn1cc(-c2ccccc2Oc2ccccc2)c2cc(C(=O)NCc3ccc(C(=O)NO)cc3)[nH]c2c1=O | Active | 15.3 nM | 570 nM |  |  |  | 42.1 nM |  |  | 168 nM |  |  | 11.3 nM | inactive | Active |  |  | 
3 | Cn1cc(-c2ccccc2Oc2ccccc2)c2cc(C(=O)NCc3ccc(C(=O)Nc4ccccc4N)cc3)[nH]c2c1=O | inactive | > 500 nM | 80 nM |  |  |  | 31.7 nM |  |  | 126 nM |  |  | 18.7 nM | Active | Active | Active |  | 
4 | CC(C)Oc1ccc(C(C)(C)O)cc1-c1cn(C)c(=O)c2[nH]c(C(=O)NCCCCCCC(=O)NO)cc12 | Active | 5.4 nM | 160 nM |  | > 10000 nM | 36.4 nM | 29.5 nM | Active | 99.6 nM | 19.4 nM | 53.73% | > 10000 nM | 6 nM | Active |  |  |  | 
5 | CC(C)Oc1ccc(C(C)(C)O)cc1-c1cn(C)c(=O)c2[nH]c(C(=O)NCc3ccc(C(=O)Nc4ccccc4N)cc3)cc12 |  |  | 40 nM |  | > 10000 nM | 1440 nM | 5.6 nM | Active | > 10000 nM | 59.7 nM | 57.31% | > 10000 nM | 2.1 nM | Active |  |  |  | 
6 | Cn1cc(-c2ccccc2Oc2ccccc2)c2cc(C(=O)NCCCCC(=O)NO)[nH]c2c1=O | inactive | 4 nM | 180 nM |  |  |  | 13.1 nM |  |  | 142 nM |  |  | 4.8 nM |  | Active |  |  | 
7 | Cn1cc(-c2ccccc2Oc2ccccc2)c2cc(C(=O)NCCCCCCC(=O)NO)[nH]c2c1=O |  | 4.7 nM | 180 nM |  |  |  | 38.6 nM |  |  | 29.5 nM |  |  | 5.3 nM |  | Active |  | Active | Active
